Reference: patent publication US4108857A, “Imidazolylmethyl methanobenzazocines” (Sterling Drug Inc., priority 1977, dated 1978)
≈ marks a conversion by molar mass, not a printed value. Structures can show the parent of a compound that is named as a salt.

Experiments:
[1] = pH of solution; assay type: physicochemical; details: 1 percent solution (Example 26 as dihydrochloride, Example 32 as such, others as hydrochloride)
[2] = solubility in water or aqueous acid; details: water
[3] = precipitation on gradual pH adjustment of the aqueous solution; assay type: physicochemical; details: for pH at which a precipitate formed: addition of N/10 sodium hydroxide solution to aqueous solution of hydrochloride; for precipitation on adjusting to pH 7.0: 1 percent solution

Row | SMILES | pH of 1 percent aqueous solution [1] | solubility [2] [mg/mL] | pH at which a precipitate formed [3] | precipitation on adjusting to pH 7.0 ([3]; N/10 sodium hydroxide solution) | precipitation on adjusting to pH 7.0 ([3]; N/10 hydrochloric acid solution)
1 | CC[C@]12CCN(CC3CC3)[C@H](Cc3ccccc31)[C@@H]2C (relative stereo) [Example 3, 1,2,3,4,5,6-hexahydro-3-cyclopropylmethyl-cis-(6-ethyl-11-methyl)-2,6-methano-3-benzazocine] | 5.6 | 200 (≈ 742 mM) | 6.5 |  | 
2 | CC(C)=CCN1CC[C@@]2(C)c3ccccc3C[C@@H]1[C@@H]2C (relative stereo) [Example 10, racemic 1,2,3,4,5,6-hexahydro-3-(3-methyl-2-butenyl)-cis-6,11-dimethyl-2,6-methano-3-benzazocine] | 6.1 | 200 (≈ 742 mM) |  | no precipitate was formed | 
3 | C[C@H]1[C@H]2Cc3ccccc3[C@]1(C)CCN2CCC(=O)O (relative stereo) [Example 24, racemic 1,2,3,4,5,6-hexahydro-3-(2-carboxyethyl)-cis-6,11-dimethyl-2,6-methano-3-benzazocine hydrochloride] | 3.0 | 100 |  | no precipitate formed | 
4 | C[C@H]1[C@H]2Cc3ccccc3[C@]1(C)CCN2CCCN (relative stereo) [Example 26, racemic 1,2,3,4,5,6-hexahydro-3-(3-aminopropyl)-cis-6,11-dimethyl-2,6-methano-3-benzazocine] | 6.6 | 200 (≈ 774 mM) |  | no precipitate was formed | 
5 | CCCCNC(=O)N1CC[C@@]2(C)c3ccccc3C[C@@H]1[C@@H]2C (relative stereo) [Example 32, racemic 1,2,3,4,5,6-hexahydro-3-(n-butylcarbamyl)-cis-6,11-dimethyl-2,6-methano-3-benzazocine] | 9.2 | 200 (≈ 666 mM) |  |  | no precipitate was formed
6 | C[C@H]1[C@H]2Cc3ccccc3[C@]1(C)CCN2C(=O)c1cccnc1 (relative stereo) [Example 34, racemic 1,2,3,4,5,6-hexahydro-3-nicotinoyl-cis-6,11-dimethyl-2,6-methano-3-benzazocine] | 2.7 | 200 (≈ 653 mM) | 3.0 |  | 
7 | COC(CN1CC[C@@]2(C)c3ccccc3C[C@@H]1[C@@H]2C)OC (relative stereo) [Example 39, racemic 1,2,3,4,5,6-hexahydro-3-(2,2-dimethoxyethyl)cis-6,11-dimethyl-2,6-methano-3-benzazocine] | 5.9 | 200 (≈ 691 mM) |  | no precipitate formed | 
8 | CC[C@H]1[C@H]2Cc3ccccc3[C@]1(C)CCN2C (relative stereo) [racemic 1,2,3,4,5,6-hexahydro-3-methyl-cis-(6-methyl-11-ethyl)-2,6-methano-3-benzazocine] | 6.7 | 50 (≈ 218 mM) |  | no precipitate formed | 
